Test results as given in US4738979A, “α2 -blocking derivatives of imidazole” (G. D. Searle & Co., priority 1985, dated 1988).

Legend:
α1 -adrenergic receptors = experiment: binding to α1-adrenergic receptors on rat brain homogenates (3H-WB 4101); conditions: 1.6 nM 3H-WB 4101
Procedure: (§1) The activity of the compounds according to the invention with respect to binding of the α-adrenergic receptors was determined in vitro according to a method deriving from the works of B. R. Rouot et al., Life Sci., 25, 769 (1979) and of D. U'Prichard et al., Mol. Pharmacol., 13, 454 (1977). This method consists in measuring the binding to the receptor on rat brain homogenates, by marking by means of a specific tritriated ligand placed in competition with the product to be tested.
(§2) In the presenct case the binding to the α1 -adrenergic receptors was measured by means of 1.6 nM of ^3 H-WB 4101 and the binding to the α2 -adrenergic receptors by means of 0.7 nM of ^3 H-p. aminoclonidine, the non-specific binding being determined by 1,000 nM of phentolamine. The results are given in Table II, column 3, and are expressed in terms of percentage of inhibition of the specific binding of 10^-7 molar compound concentration.
(§3) (2) The specific binding is the total binding less the nonspecific
(§4) binding. The total binding is the binding in the absence of nonradioactiv
(§5) drug. The nonspecific binding is the binding in the presence of 1,000 nM
(§6) of phentolamine. The products of the invention are tested at a
(§7) concentration of 10^-7 molar.

α2 -adrenergic receptors [1] = target: T1, α2 -adrenergic receptors (Rattus norvegicus, UniProt P22909); experiment: binding to α2-adrenergic receptors on rat brain homogenates (3H-p. aminoclonidine); conditions: 10^-7 M; rat brain homogenates; 0.7 nM 3H-p. aminoclonidine; read-out: % Inhibition of the Specific Binding at 10^-7 M for α2 Recep.
T1 construct: from tissue; host or cells: rat brain homogenates
T1 sequence (P22909 1-465): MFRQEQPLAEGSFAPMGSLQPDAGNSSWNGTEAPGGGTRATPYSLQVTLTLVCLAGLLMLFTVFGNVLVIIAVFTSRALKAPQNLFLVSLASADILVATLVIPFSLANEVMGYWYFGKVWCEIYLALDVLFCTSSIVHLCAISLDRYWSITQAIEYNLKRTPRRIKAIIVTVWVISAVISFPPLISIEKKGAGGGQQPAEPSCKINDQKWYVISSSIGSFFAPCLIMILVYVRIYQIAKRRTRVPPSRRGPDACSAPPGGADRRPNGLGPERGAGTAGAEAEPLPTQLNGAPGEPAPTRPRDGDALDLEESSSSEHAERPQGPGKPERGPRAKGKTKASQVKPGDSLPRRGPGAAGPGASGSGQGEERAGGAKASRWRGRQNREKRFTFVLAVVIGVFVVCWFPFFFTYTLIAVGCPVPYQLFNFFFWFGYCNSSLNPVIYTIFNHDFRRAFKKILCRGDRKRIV
Procedure: as §1, §2, §3, §4, §5, §6, §7

α2 -adrenergic receptors [2] = target: T2, α2 -adrenergic receptors (Cavia porcellus, UniProt Q60474); experiment: α2 antagonist and α2 agonist activity in isolated guinea pig ileum (clonidine)
T2 construct: from tissue; host or cells: isolated guinea pig ileum
T2 sequence (Q60474 1-464): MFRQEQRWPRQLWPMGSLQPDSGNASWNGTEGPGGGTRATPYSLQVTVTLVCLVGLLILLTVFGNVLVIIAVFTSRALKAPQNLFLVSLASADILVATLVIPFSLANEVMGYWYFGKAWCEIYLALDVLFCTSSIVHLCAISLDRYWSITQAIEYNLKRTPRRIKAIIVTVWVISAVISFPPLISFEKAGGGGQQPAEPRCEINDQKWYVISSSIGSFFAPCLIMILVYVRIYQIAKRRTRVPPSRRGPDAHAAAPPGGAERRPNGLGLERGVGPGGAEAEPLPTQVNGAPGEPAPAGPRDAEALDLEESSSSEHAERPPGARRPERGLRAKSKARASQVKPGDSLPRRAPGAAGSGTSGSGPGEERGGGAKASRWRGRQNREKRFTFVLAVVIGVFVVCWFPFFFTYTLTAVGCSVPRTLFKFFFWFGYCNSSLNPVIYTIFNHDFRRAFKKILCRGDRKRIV
Procedure: The α2 antagonist and α2 agonist activity of the compounds according to the invention was determined upon isolated organs according to a model described by G. M. Drews, Br. J. Pharmaco., 64, 293-300 (1978).
This model is based upon the principle that the stimulation of the cholinergic nervous transmissions of the guinea pig ileum causes the liberation of acetyl choline, which in turn causes contractions of the ileum.
The stimulation of the α2 -adrenergic receptors inhibits the activity of the cholinergic nerve and consequently reduces all response resulting from a timulation of the latter. Thus the contractions of the ileum induced by electric stimulation of the tissue are inhibited by clonidine, an α2 agonist, in proportion to the dose. This inhibition is specifically displaced by the α2 antagonists and not by the α1 antagonists.
The method utilized can be summarized as follows: three dose-response curves to clonidine are established at an interval of 60 minutes. Two concentrations of the product to be tested are added successively 10 minutes before the realization of the second and third clonidine curves. Next, after washing, a dose-response curve is established with the product to be tested.
The dose-response curves are calculated as a percentage of the maximum inhibition obtained for the first curve. In this system the products having an α2 antagonist activity displace the dose-response curve to clonidine. The α2 antagonist activity, expressed in pA2 value, shown in column 4, is calculated according to J. M. Van Rossum, Arch. Int. Pharmacodyn., 143, 299-300 (1963).
A reduction of the contractions induced by the tested product alone indicates an α2 agonist effect. This activity is expressed in--log ED50 (the--logarithm of the concentration of the product giving 50% of the maximum inhibition obtained with clonidine).
The higher the pA2 value, the higher the α2 antagonist activity; the higher the--log ED50 value (i.e., the pA2 agonist activity), the higher the α2 agonist activity.

[3] = system: α2 adrenergic receptors of the central nervous system; experiment: inhibition of the antihypertensive action of clonidine in spontaneously hypertensive rats (SHR); format: in vivo, rat; conditions: 1 mg/kg p.o., clonidine 50 μg/kg s.c.
Procedure: In the first study, carried out upon unanaesthetized spontaneously hypertensive rats (SHR rats), the ability of the compounds of the present invention to inhibit the antihypertensive action of clonidine was determined.
The antihypertensive activity of clonidine results from an interaction with α2 adrenergic receptors of the central nervous system, i.e., central antihypertensive actions.
In this test, two groups of SHR rats are utilized as follows. In the first group, prior to subcutaneous administration of clonidine (50 μg/kg), the SHR rats are treated with the compound to be tested (1 mg/kg p.o.) dissolved in a saline vehicle. The second group (control group) of SHR rats are treated with the saline vehicle only, prior to subcutaneous administration of clonidine.
The arterial pressure is measured in the region of the median coccygeal artery according to the method of J. Roba, A. F. DeSchaepdrijver, Exp. Anim., 4, 147-162 (1971).
The results of this assay summarized in Table II, column 5, are expressed as a percentage of inhibition of the effect of clonidine.

[4] = system: bicuculline-induced tonic extension in mice; experiment: protection against bicuculline-induced tonic extension in mice; format: in vivo; conditions: Mus musculus, iv, 3 hours prior to bicuculline 0.7 mg/kg i.v., read-out: Anticonvulsive effect (versus Bicuculline) (% Protection)
Procedure: In the second study the anti-convulsant effect of the compounds of the present invention was examined in two seizure models; bicuculline-induced tonic extension in mice and 3-mercaptopropionic acid (3-MPA)-induced tonic extension in mice.
In the bicuculline study, the ability of the compounds of the present invention to protect against tonic extension (involving rigidity) was evaluated as follows. Each test compound was administered to a group of ten mice at a dose of 10 mg/kg, 3 hours prior to the i.v. administration of bicuculline (0.7 mg/kg). Anticonvulsant activity in this test is expressed as percentage of animals tested. The results are given in Table II, column 6, and indicate that several compounds display significant anticonvulsive activity in this test. The anticonvulsant effect of the compounds has also been tested with respect to the tonic extension induced by 3-mercaptopropionic acid (120 mg/kg subcutaneously) in mice.

[5] = acute toxicity after oral administration to mice (LD50); conditions: mouse, in vivo, 15 days mortality
Procedure: The acute toxicity of the compounds of the present invention was studied after oral administration to mice. The products to be tested, suspended in a 1% tragacanth gum mucilage, were administered by means of an intragastric probe to groups of three male mice which had fasted since the preceding day. The doses tested are a function of the effect observed and can vary from 3,000 to 3 mg/kg or less. The mortality was recorded for 15 days. The lethal dose for 50% of the animals (LD50) was calculated according to the method of J. Litchfield and F. Wilcoxon, J. Pharmacol. Exp. Ther., 96, 99 (1949) and expressed in mg/kg. The effect of the products on the behaviour of the animals is observed until 5 to 6 hours after the treatment indicated above and after 24 hours, using a method derived from that of S. Irwin, described by R. A. Turner, Screening Methods in Pharmacology, Chapter 3, pages 22-34, Academic Press, 1965. If anomalies are noted, the observation is prolonged and smaller doses are tested.

SMILES | % Inhibition of the Specific Binding at 10^-7 M for α1 Recep. (α1 -adrenergic receptors) [%] | inhibition at 0.1 µM (α2 -adrenergic receptors [1]) [%] | EC50 (α2 -adrenergic receptors [2]; 50% of maximum inhibition obtained with clonidine, read-out: α2 Agonist Activity (-log ED50) (converted)) [nM] | Kb (α2 -adrenergic receptors [2]; versus clonidine, read-out: α2 Antagonist Activity (pA2) (converted)) [nM] | α2 Antagonist (% Inhibition of the Antihypertension of Clonidine) [3] [%] | responders at 10 mg/kg [4] [%] | LD50 at 360 h [5] [mg/kg]
CC(=C(c1ccccc1)c1ccccc1)c1c[nH]cn1 [Compound 2, 4(5)-[(2,2-diphenyl-1-methyl)ethenyl]imidazole] | 3 | 43 | 2510 | 50.1 | 71 | 20 | 
OC(c1c[nH]cn1)C(c1ccccc1)c1ccccc1 (stereo not shown) [Compound 5] | 3 | 2 |  |  | 24 | 30 | > 300
COC(c1c[nH]cn1)C(c1ccccc1)c1ccccc1 (stereo not shown) [Compound 6] | 0 | 0 |  |  | 62 | 30 | 
c1ccc(C(Cc2c[nH]cn2)(c2ccccc2)c2ccccc2)cc1 [Compound 8] | 0 | 0 |  |  | 28 | 20 | 1.75
C(=C(c1ccccc1)c1ccccc1)c1c[nH]cn1 [Compound 11] | 6 | 9 |  |  | 48 | 40 | 
CCCC(=C(c1ccccc1)c1ccccc1)c1c[nH]cn1 [Compound 18, 4(5)-[(2,2-diphenyl-1-n.propyl)-ethenyl]-imidazole] | 0 | 0 |  |  | 47 | 50 | 270
CCCC(c1c[nH]cn1)C(c1ccccc1)c1ccccc1 (stereo not shown) [Compound 19, 4(5)-[2-(1,1-diphenyl)pentyl]imidazole] | 4 | 15 |  |  | 75 | 40 | 350
CCCC(OC)(c1c[nH]cn1)C(c1ccccc1)c1ccccc1 (stereo not shown) [Compound 20, 4(5)-[2-(1,1-diphenyl-2-methoxy)-pentyl]imidazole] | 0 | 6 |  |  | 62 | 60 | > 300
Cc1nc(CC(c2ccccc2)c2ccccc2)c[nH]1 [Compound 25, 4(5)-(2,2-diphenylethyl)-2-methylimidazole] | 0 | 3 |  |  | 87 | 10 | 
COC(c1c[nH]c(C)n1)C(c1ccccc1)c1ccccc1 (stereo not shown) [Compound 26] | 1 | 2 |  |  |  | 10 | 350
O=C(O)c1ccccc1C(Cc1c[nH]cn1)c1ccccc1 (stereo not shown) [Compound 30] | 12 | 1 |  |  |  |  | > 300
COC(=O)c1ccccc1C(Cc1c[nH]cn1)c1ccccc1 (stereo not shown) [Compound 31] | 13 | 20 |  |  |  |  | 
